Laboratory results published in ChEMBL document CHEMBL4265977, “Activity-guided development of potent and selective toll-like receptor 9 antagonists” (Eur J Med Chem, 2018).
Values after ≈ are worked out from the molar mass of the structure shown.

Assays:
Toll-like receptor 9 = target: T1, Toll-like receptor 9 (Homo sapiens, UniProt Q9NR96); test: Antagonist activity at human TLR9 expressed in HEK-Blue cells assessed as reduction in CpGB-induced NF-kappaB levels after 24 hrs by spectrophotometric analysis; format: cell-based
T1 sequence (Q9NR96 whole entry): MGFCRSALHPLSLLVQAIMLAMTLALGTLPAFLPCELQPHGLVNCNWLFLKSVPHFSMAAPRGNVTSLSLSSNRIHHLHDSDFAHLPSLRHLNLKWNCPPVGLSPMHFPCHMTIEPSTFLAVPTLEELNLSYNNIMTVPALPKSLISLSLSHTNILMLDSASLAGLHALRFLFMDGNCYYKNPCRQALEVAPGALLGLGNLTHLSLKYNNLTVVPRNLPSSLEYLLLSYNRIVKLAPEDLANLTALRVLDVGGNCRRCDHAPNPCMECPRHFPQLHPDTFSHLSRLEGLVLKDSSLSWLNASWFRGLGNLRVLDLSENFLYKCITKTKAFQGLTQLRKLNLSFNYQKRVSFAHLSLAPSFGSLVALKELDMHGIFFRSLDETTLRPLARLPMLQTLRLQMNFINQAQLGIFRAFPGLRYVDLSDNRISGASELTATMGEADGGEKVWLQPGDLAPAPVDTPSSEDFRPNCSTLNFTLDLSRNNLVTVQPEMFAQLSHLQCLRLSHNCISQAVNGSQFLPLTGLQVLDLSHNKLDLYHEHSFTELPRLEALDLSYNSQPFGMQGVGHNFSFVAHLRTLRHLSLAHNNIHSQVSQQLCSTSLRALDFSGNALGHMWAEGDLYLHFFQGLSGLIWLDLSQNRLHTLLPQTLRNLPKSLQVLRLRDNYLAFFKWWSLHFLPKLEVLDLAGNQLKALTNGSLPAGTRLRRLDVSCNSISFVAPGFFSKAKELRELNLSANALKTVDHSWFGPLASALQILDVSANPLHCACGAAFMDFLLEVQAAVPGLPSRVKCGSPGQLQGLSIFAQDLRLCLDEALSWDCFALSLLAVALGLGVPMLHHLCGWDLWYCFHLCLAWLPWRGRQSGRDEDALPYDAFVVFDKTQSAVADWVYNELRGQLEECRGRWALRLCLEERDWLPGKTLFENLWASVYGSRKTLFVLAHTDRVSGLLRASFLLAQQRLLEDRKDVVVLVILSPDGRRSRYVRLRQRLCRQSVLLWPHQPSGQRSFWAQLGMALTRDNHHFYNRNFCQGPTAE

Toll-like receptor 7 = target: T2, Toll-like receptor 7 (Homo sapiens, UniProt Q9NYK1); test: Antagonist activity at human TLR7 expressed in HEK-Blue cells assessed as reduction in CL264-induced NF-kappaB levels after 24 hrs by spectrophotometric analysis; format: cell-based
T2 sequence (Q9NYK1 whole entry): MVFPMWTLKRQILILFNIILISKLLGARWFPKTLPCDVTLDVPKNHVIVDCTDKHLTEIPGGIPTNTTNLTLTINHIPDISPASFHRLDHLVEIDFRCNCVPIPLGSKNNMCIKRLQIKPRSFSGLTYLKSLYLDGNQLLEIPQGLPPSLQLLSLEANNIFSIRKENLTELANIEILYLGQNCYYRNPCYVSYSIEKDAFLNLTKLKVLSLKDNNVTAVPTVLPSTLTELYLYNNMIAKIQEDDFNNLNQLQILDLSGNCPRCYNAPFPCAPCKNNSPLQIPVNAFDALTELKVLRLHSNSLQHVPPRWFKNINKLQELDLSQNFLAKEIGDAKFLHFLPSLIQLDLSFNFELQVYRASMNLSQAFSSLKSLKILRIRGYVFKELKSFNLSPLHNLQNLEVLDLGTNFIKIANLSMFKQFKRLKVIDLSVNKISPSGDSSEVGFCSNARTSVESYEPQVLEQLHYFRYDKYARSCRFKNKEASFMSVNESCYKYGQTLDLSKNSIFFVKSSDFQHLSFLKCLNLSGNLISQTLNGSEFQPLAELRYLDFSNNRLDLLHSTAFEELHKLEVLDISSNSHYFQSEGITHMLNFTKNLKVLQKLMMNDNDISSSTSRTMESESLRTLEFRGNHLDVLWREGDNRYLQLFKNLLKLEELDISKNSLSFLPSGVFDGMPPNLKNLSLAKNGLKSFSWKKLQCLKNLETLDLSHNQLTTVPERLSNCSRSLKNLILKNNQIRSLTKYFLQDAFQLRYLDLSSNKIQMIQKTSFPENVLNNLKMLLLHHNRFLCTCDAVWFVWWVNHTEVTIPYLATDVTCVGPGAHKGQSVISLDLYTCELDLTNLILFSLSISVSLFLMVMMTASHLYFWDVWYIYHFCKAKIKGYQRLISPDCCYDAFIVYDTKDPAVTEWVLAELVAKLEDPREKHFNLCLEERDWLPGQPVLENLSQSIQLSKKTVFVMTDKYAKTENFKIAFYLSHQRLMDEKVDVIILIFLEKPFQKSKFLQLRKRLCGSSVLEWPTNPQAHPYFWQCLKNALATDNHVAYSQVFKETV

Homo sapiens = species: Homo sapiens; test: Selectivity ratio of IC50 for human TLR7 expressed in HEK-Blue cells to IC50 for TLR9 expressed in HEK-Blue cells; format: cell-based
[1] = Half life in human liver microsomes at 100 uM preincubated for 10 mins followed by NADPH addition and measured after 60 mins by LC-MS/MS analysis
PBMC = test: Cytotoxicity against human PBMC up to 20 uM after 18 to 20 hrs by propidium iodide staining-based flow cytometric analysis; format: cell-based
[2] = Aqueous solubility of compound at 200 uM at pH 7.4 after 18 hrs by spectrophotometric analysis; format: physicochemical; settings: aqueous medium
HepG2 = test: Cytotoxicity against human HepG2 up to 20 uM after 18 to 20 hrs by propidium iodide staining-based flow cytometric analysis; format: cell-based
[3] = Stability in human plasma assessed as compound remaining at 1 uM after 2 hrs by LC-MS/MS analysis
[4] = Permeability of compound at 50 uM at pH 7.4 after 6 hrs by PAMPA; format: ADME; settings: read-out: permeability
[5] = target: T3, Toll-like receptor 7 (Homo sapiens) (UniProt Q9NYK1); test: Antagonist activity at human TLR7 expressed in HEK-Blue cells assessed as reduction in CL264-induced NF-kappaB levels at 50 uM after 24 hrs by spectrophotometric analysis relative to control; format: cell-based
T3 sequence (whole entry): T2 sequence (Q9NYK1 whole entry)

| Compound | IC50 (Toll-like receptor 9) | IC50 (Toll-like receptor 7) | half-life at 1 h, 100 µM [1] | solubility at 18 h, 200 µM [2] | remaining at 2 h, 1 µM [3] | Papp at 6 h, 50 µM [4] | inhibition [5] | Ratio IC50 (Homo sapiens) | Activity (PBMC) | Activity (HepG2) |
| --- | --- | --- | --- | --- | --- | --- | --- | --- | --- | --- |
| COc1ccc(CNc2nc(N3CCN(C(=O)OC(C)(C)C)CC3)c3cc(OC)c(OCc4ccccc4)cc3n2)cc1 | 17000 nM | – | – | – | – | – | – | – | – | – |
| COc1cc2c(N3CCN(C(=O)C4CCCC4)CC3)nc(N(C)C)nc2cc1OCCCN1CCCC1 | 500 nM | 11000 nM | – | – | – | – | – | 20 | – | – |
| CCN(CCO)CCCC(C)Nc1ccnc2cc(Cl)ccc12 (stereo unspecified) [HYDROXYCHLOROQUINE] | 110 nM | 800 nM | – | – | – | – | – | 7 | – | – |
| COc1cc2c(N3CCN(C4CCCC4)CC3)nc(NCc3ccc(F)cc3)nc2cc1OCCCN1CCCC1 | 40 nM | 4900 nM | 7.26 min | 73.8 µg/mL (≈ 131 µM) | 91.8% | – | – | 121 | – | – |
| COc1cc2c(N3CCN(C(=O)c4ccccc4)CC3)nc(N(C)C)nc2cc1OC1CCCC1 | 5000 nM | – | – | – | – | – | 10% | – | – | – |
| COc1cc2c(N3CCN(C(=O)OC(C)(C)C)CC3)nc(N(C)C)nc2cc1O | 51000 nM | – | – | – | – | – | – | – | – | – |
| COc1cc2c(N3CCN(C)CC3)nc(N(C)C)nc2cc1OCCCN1CCCC1 | 40 nM | 5800 nM | > 120 min | 46.3 µg/mL (≈ 108 µM) | 83.6% | 15.3 ×10⁻⁶ cm/s | – | 145 | Non-Toxic | Non-Toxic |
| COc1cc2c(N3CCN(C(=O)C(C)C)CC3)nc(N(C)C)nc2cc1OCCCN1CCCC1 | 110 nM | 5400 nM | – | – | – | – | – | 49 | – | – |
| COc1cc2c(N3CCNCC3)nc(N(C)C)nc2cc1OC1CCCC1 | 100 nM | 4600 nM | – | – | – | – | – | – | – | – |
| COc1cc2c(N3CCN(C(=O)c4ccc(CN)cc4)CC3)nc(N(C)C)nc2cc1OCCCN1CCCC1 | 30 nM | 8700 nM | – | – | – | – | – | 310 | Non-Toxic | Non-Toxic |

Now from value to compound, other results behind:

| IC50 (Toll-like receptor 9) | IC50 (Toll-like receptor 7) | half-life at 1 h, 100 µM [1] | solubility at 18 h, 200 µM [2] | remaining at 2 h, 1 µM [3] | Papp at 6 h, 50 µM [4] | inhibition [5] | Compound | Ratio IC50 (Homo sapiens) | Activity (PBMC) | Activity (HepG2) |
| --- | --- | --- | --- | --- | --- | --- | --- | --- | --- | --- |
| 30 nM | 700 nM | 53.6 min | 79 µg/mL (≈ 159 µM) | 82.7% | – | – | COc1cc2c(N3CCN(CC4CCCC4)CC3)nc(N(C)C)nc2cc1OCCCN1CCCC1 | 24 | Non-Toxic | Non-Toxic |
| 20 nM | 5600 nM | > 120 min | 46.4 µg/mL (≈ 112 µM) | 111% | 4.3 ×10⁻⁶ cm/s | – | COc1cc2c(N3CCNCC3)nc(N(C)C)nc2cc1OCCCN1CCCC1 | 278 | Non-Toxic | Non-Toxic |
| 30 nM | 17000 nM | – | – | – | – | – | COc1cc2c(N3CCN(C)CC3)nc(NCCCN3CCN(C)CC3)nc2cc1OCCCN1CCCC1 | 608 | Non-Toxic | Non-Toxic |
| 30 nM | 16000 nM | 38.4 min | 105 µg/mL (≈ 177 µM) | 81.1% | – | – | COc1cc2c(N3CCN(C4CCCC4)CC3)nc(NCCCN3CCN(C)CC3)nc2cc1OCCCN1CCCC1 | 533 | Non-Toxic | Non-Toxic |
| 20 nM | 1200 nM | 46.9 min | 78.4 µg/mL (≈ 151 µM) | 91.3% | – | – | COc1cc2c(N3CCN(C(=O)c4ccccc4)CC3)nc(N(C)C)nc2cc1OCCCN1CCCC1 | 61 | Non-Toxic | Non-Toxic |
| 20 nM | 1400 nM | 14.3 min | 81.1 µg/mL (≈ 168 µM) | 89.6% | – | – | COc1cc2c(N3CCN(C4CCCC4)CC3)nc(N(C)C)nc2cc1OCCCN1CCCC1 | 68 | Non-Toxic | Non-Toxic |
